Here are results for one compound from US9067894B1, “Compound, composition, and method of activating GIRK potassium channel and use of same for treating conditions of interest” (Vanderbilt University, priority 2013, dated 2015).

In one experiment the target is T1, GIRK2/3 (Homo sapiens, UniProt P48051+Q92806).
T1 construct: expressed in transfected cells; host or cells: HEK-293
T1 sequence (P48051 1-423): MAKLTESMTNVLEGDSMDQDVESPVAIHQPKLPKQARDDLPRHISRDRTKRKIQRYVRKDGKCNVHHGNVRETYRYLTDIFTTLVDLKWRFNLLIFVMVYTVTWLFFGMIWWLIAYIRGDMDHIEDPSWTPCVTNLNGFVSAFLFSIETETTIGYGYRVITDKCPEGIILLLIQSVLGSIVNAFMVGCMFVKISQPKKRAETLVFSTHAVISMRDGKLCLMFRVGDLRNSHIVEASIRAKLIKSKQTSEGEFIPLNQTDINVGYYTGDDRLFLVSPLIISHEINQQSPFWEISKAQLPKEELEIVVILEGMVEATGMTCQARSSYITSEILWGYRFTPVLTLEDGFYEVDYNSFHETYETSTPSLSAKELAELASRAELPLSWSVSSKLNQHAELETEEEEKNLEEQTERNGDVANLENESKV
T1 sequence (Q92806 1-393): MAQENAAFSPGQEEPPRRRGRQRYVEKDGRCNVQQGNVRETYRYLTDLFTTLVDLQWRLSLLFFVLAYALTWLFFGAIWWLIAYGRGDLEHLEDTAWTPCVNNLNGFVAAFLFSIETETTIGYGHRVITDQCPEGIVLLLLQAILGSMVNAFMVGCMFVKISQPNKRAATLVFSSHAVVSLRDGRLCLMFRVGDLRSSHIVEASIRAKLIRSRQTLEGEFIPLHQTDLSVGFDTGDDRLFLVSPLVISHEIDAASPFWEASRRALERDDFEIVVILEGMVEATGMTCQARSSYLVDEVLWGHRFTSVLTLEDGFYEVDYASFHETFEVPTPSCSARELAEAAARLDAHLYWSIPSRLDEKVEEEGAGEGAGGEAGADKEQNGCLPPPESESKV
Nature of the experiment: Whole-cell voltage-clamp, GIRK2/3-expressing HEK-293 cells. In kind it is cell-based. As to conditions: cell line GIRK2-3. The source says: Cell Line Construction and Cell Culture. HEK-293 cells co-expressing human GIRK1/2 and rat mGlu8 were generated as previously described (Niswender et al., 2008). A HEK-293 cell line (ATCC, Manassas, Va.) expressing human GIRK1 and human GIRK2 was constructed by transfecting HEK-293 cells with GIRK1 and GIRK2 (Origene, Rockville, Md.) cloned into the pBudCE4.1 vector (Life Technologies, Carlsbad, Calif.) using FuGene 6 (Promega, Madison, Wis.) transfection reagent. […]
A single-cell suspension of HEK-293 cells stably transfected with the appropriate ion channels were plated into TC-treated 35 mm polystyrene dishes at ˜15% confluence and incubated overnight in a 5% CO2 cell culture incubator at 37° C. […] Whole cell currents were recorded in 20K extracellular solution at −70 mV using a Pico 1 amplifier (Tecella, Foothill Ranch, Calif.) controlled by WINWCP 4.X (University of Strathclyde, Glasgow, Scotland, UK). […] One day after transfection, cells were plate into 35 mm polystyrene dishes, incubated and recorded as described above. […]
(§1) Voltage-clamp data were analyzed by converting current amplitudes to current density by dividing by each cell's membrane capacitance estimated from capacitance compensation. […]

In the next experiment the target is T2, Glucocorticoid (Homo sapiens, UniProt P04150).
T2 construct: Ricerca
T2 sequence (P04150 whole entry): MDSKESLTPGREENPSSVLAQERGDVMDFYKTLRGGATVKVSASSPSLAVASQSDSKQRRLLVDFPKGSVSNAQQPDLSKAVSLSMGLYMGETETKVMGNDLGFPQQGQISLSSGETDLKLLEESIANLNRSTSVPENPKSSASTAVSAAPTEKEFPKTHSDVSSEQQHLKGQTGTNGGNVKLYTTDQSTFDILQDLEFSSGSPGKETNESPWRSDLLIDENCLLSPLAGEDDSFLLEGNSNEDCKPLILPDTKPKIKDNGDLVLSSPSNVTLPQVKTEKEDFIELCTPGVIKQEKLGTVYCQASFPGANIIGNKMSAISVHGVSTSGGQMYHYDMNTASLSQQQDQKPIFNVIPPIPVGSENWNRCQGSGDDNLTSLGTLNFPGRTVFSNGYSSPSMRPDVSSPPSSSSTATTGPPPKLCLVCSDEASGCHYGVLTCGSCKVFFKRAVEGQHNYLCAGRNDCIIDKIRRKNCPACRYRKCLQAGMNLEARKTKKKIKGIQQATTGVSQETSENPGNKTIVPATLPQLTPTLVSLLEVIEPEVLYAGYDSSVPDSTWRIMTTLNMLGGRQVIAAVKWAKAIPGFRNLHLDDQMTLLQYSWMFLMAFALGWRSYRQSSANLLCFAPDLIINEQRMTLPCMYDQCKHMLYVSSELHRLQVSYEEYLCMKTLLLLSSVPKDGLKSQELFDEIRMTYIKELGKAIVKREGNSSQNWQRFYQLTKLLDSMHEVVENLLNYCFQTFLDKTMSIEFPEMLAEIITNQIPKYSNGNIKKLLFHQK
Nature of the experiment: Radioligand displacement (Ricerca). In kind it is binding. A general note: Loss of bound radioactivity is the signal in a displacement assay; it reports binding, not function.

Experiment [1] addresses T3, GABAA receptors (α1, β2, γ2 subunit combination) (Homo sapiens, UniProt P14867+P18507+P47870).
T3 construct: expressed in transfected cells; host or cells: HEK-293 (transient)
Nature of the experiment: Whole-cell voltage-clamp on GABAA receptors transiently transfected in HEK-293 cells. The class given is cell-based. The settings on record: activation or potentiation of GABA-evoked currents. The method, then:
A single-cell suspension of HEK-293 cells stably transfected with the appropriate ion channels were plated into TC-treated 35 mm polystyrene dishes at ˜15% confluence and incubated overnight in a 5% CO2 cell culture incubator at 37° C. Whole-cell patch-clamp recordings were performed 24-72 h after plating. Borosilicate glass electrodes ([…] resistance) were filled with Intracellular Solution (130 mM KCl, 20 mM NaCl, 5 mM EGTA, 5.46 mM MgCl2, and 10 mM HEPES, pH 7.4). Whole cell currents were recorded in 20K extracellular solution at −70 mV using a Pico 1 amplifier (Tecella, Foothill Ranch, Calif.) controlled by WINWCP 4.X (University of Strathclyde, Glasgow, Scotland, UK). Signals were compensated for electrode capacitance, cellular capacitance and series resistance. Signals were filtered at 1 kHz, and digitized at 5 kHz. Solutions were applied to the cell with a Valvelink 8.2 (Automate Scientific, Berkeley, Calif.) rapid, valve-controlled perfusion system with in-house-made local superfusion manifold. […] One day after transfection, cells were plate into 35 mm polystyrene dishes, incubated and recorded as described above. […]
as §1

The next experiment addresses T4, Adenosine A2A (Homo sapiens, UniProt P29274).
T4 construct: Ricerca (contract assay)
Nature of the experiment: Radioligand displacement (Ricerca). In kind it is binding.

The target of another experiment is T5, PAF (Homo sapiens, UniProt P25105).
T5 construct: Ricerca (contract laboratory that ran the panel)
T5 sequence (P25105 whole entry): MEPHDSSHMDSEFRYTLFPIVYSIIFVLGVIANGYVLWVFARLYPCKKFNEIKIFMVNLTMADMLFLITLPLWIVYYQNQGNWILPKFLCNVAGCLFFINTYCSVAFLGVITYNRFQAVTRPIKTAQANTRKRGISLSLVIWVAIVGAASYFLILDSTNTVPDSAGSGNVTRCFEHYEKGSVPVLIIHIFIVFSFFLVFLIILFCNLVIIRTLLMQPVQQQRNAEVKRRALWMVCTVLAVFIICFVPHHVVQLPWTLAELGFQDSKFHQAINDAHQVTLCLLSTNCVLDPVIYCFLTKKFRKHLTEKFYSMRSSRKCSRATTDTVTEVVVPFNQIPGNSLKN
Nature of the experiment: Radioligand displacement (Ricerca). The class given is binding.

Another experiment has as its target T6, Transporter, SERT (Homo sapiens, UniProt P31645).
T6 construct: Ricerca (contract panel)
Nature of the experiment: Radioligand displacement (Ricerca). In kind it is binding.

Another experiment deals with T7, Bradykinin B1 (Homo sapiens, UniProt P46663).
T7 construct: Ricerca
T7 sequence (P46663 whole entry): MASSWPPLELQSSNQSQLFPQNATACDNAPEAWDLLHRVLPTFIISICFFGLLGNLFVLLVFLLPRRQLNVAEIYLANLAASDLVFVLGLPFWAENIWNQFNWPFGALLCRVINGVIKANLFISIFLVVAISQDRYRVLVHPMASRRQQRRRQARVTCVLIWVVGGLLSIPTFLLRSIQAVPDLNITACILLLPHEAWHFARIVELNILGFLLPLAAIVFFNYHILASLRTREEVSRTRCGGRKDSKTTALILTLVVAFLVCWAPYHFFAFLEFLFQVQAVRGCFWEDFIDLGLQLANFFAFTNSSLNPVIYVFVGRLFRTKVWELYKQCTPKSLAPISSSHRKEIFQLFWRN
Nature of the experiment: Radioligand displacement (Ricerca). In kind it is binding.

For a further experiment, the target named is T8, Dopamine D1 (Homo sapiens, UniProt P21728).
T8 construct: Ricerca
T8 sequence (P21728 whole entry): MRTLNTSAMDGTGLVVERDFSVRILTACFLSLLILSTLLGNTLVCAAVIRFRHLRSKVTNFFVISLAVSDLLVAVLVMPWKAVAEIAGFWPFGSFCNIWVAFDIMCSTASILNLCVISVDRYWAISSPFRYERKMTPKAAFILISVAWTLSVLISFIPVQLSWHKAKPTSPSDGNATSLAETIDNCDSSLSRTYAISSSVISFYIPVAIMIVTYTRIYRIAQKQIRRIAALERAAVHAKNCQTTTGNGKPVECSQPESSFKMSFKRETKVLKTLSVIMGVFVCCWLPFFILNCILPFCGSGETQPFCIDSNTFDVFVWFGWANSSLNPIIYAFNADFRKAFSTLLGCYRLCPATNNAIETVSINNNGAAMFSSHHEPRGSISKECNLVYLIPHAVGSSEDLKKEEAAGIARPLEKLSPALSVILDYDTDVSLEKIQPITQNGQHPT
Nature of the experiment: Radioligand displacement (Ricerca). In kind it is binding.

“Also recorded” adds a separate entry of the source.

T3 sequence (P14867 28-456): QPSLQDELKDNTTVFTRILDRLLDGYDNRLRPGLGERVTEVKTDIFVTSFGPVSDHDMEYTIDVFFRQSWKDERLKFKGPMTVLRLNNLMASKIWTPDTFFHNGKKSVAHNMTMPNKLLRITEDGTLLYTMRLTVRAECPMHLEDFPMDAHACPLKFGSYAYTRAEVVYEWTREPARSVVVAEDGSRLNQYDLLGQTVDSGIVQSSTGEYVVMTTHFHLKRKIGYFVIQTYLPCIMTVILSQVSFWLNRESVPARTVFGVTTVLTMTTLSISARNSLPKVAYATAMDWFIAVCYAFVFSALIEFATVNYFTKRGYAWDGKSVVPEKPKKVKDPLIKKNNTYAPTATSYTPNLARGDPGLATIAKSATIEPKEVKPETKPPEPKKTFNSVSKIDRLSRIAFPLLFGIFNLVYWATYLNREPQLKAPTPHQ
T3 sequence (P47870 25-512 limits assumed): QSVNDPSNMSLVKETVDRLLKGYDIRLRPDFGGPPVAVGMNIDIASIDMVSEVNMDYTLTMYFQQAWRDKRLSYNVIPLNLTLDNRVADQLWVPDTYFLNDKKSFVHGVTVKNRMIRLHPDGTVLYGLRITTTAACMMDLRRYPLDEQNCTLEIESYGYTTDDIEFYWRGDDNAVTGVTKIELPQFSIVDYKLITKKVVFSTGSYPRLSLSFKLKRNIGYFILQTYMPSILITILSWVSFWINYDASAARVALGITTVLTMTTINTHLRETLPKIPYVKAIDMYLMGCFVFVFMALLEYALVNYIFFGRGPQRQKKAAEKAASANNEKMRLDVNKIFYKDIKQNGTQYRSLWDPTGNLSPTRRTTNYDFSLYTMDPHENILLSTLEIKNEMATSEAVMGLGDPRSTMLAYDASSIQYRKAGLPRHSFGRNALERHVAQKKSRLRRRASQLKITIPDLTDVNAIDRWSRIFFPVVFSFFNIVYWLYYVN
T3 sequence (P18507 40-475): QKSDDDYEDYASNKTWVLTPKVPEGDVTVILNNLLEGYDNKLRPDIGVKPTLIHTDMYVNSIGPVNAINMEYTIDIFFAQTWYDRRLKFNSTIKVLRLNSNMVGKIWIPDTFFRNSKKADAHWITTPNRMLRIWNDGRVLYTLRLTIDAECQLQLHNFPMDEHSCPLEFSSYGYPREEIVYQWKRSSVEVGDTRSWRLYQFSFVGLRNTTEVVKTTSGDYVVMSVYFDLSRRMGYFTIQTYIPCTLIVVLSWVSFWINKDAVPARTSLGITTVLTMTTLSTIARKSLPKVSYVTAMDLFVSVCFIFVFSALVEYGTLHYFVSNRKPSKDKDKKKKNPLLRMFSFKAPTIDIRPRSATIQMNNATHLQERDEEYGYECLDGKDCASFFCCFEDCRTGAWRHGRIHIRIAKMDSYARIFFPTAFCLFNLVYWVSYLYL
T6 sequence (P31645 whole entry): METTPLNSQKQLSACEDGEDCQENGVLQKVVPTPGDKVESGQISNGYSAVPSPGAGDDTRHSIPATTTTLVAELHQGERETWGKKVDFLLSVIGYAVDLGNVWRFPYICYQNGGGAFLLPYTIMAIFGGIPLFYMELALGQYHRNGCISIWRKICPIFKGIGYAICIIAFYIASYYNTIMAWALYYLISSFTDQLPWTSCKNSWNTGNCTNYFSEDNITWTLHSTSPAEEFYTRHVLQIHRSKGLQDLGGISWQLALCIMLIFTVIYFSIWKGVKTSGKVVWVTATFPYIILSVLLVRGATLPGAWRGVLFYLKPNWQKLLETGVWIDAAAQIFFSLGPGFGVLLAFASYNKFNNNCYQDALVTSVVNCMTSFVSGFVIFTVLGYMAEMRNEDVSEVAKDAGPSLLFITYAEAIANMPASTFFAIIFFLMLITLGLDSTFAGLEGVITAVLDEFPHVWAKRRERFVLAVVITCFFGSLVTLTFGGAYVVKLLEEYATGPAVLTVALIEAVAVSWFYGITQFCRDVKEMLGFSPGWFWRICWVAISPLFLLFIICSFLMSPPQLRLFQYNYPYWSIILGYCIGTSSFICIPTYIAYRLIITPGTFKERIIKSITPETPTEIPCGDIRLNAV
T4 sequence (P29274 whole entry): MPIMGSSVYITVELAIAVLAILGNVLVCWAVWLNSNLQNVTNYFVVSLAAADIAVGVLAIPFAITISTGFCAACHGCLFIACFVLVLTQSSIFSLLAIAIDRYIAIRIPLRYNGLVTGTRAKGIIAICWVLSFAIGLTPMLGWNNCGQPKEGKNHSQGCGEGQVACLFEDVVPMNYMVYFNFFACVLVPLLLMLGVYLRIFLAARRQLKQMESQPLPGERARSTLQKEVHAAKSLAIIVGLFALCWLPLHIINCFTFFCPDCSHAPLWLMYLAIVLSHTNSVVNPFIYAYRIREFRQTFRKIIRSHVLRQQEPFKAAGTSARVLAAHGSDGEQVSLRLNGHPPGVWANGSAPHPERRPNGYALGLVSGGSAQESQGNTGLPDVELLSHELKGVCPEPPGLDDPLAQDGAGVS

One may read the inhibition as the relative decrease from the control value, in per cent. Turning to `Cc1cc(NC(=O)Nc2ccc(F)c(F)c2)n(-c2ccccc2)n1` [VU0456810, 1-(3,4-difluorophenyl)-3-(3-methyl-1-phenyl-1H-pyrazol-5-yl)urea], at GIRK2/3, the “EC50 Voltage Clamp” value was “Inactive”. For the same compound, the inhibition at 10 µM was 2% on Glucocorticoid; 12% at Adenosine A2A; 2% at PAF; -1% on Transporter, SERT; -2% on Bradykinin B1; -5% at Dopamine D1. The Potency entry in experiment [1] is on record as “failed to show any activation or potentiation; also recorded: Inactive”.
